From patent US7521236B2, “Sulfur-oxidizing plant growth promoting rhizobacteria for enhanced canola performance” (priority 2002, dated 2009)

How the values were obtained:
Assay type in all cases: in vivo
canola = experiment: Field trial 2002, Dauphin, MB; details: canola seed, Dauphin field site
Method: In 2002, field trials were carried out using three canola PGPR strains. The canola trials were planted through commercial seed planter using bacteria inoculated powdered peat-based carrier material coated seeds. The cultivar used was the same as 2001. All field trials were randomized complete block design having each plot size of 6 m×1.5 m, with nine bacterial treatments along with three controls, all with six replicates. […] Plots were harvested at maturity, seed was collected and cleaned, and yield was measured based on 8.5% seed moisture. In addition, canola seed macronutrients (S, N, P, K, Ca and Mg) and micronutrients (Zn, Mn, Cu and Fe) uptake were also determined.

canola plants [1] = experiment: Growth room experiment in sulfur deficient Melfort, SK soil: biomass and yield; details: 105 DAP
Method: (§1) Effects of bacterial inoculation on plant growth parameters were studied in a growth room with the four screened S-oxidizing strains (RAY12, RAY28, RAY132 and RAY209). More emphasis was given on plant growth characteristics including canola seed yield. Growth room assay was conducted with a sulfur deficient field soil, collected near Melfort, Saskatchewan, and was a loam (pH 7.8, electrical conductivity (mS/cm) 0.2 with following nutrient levels in ppm. nitrate nitrogen 7.3, phosphorous 14.6, potassium 187.1 and sulfur 9.5. Rhizobacterial strains RAY12, RAY28, RAY132 and RAY209 were used for the canola seed inoculation. The experiment was consisting of eight bacterial treatments along with three controls (control—no sulfur; elemental S control; and sulfate S control) each having three replications. One and half kg sieved soil (<5 mm mesh) was added to 16-cm plastic pots and the pots were kept in a growth room (22° C., 16 h light; 18° C., 8 h dark). Five seeds were planted in each of the pots and seedlings were thinned to one per pot after emergence. Daily watering to constant weight ensured similar matric potential between the pots. Canola plants were harvested at maturity (105 DAP) and stalk dry weight, pod number, pod weight and seed weight or yield determined. In another growth room experiment done in similar manner as previous one, canola seed yield, and, seed macronutrients (S, N, P, K, Ca and Mg) and micronutrients (Zn, B, Cu and Fe) uptake were determined.

canola plants [2] = experiment: Second growth room experiment: seed yield and seed nutrient uptake; details: per plant; for B uptake / Ca uptake / Cu uptake / K uptake / Mg uptake / N uptake / P uptake / S uptake / Zn uptake: seed
Method: as §1

canola plants [3] = experiment: as above; details: seed, per plant

Compound | Ca uptake (canola) [kg/ha] | Cu uptake (canola) [g/ha] | Fe uptake (canola) [g/ha] | K uptake (canola) [kg/ha] | Mg uptake (canola) [kg/ha] | Mn uptake (canola) [g/ha] | N uptake (canola) [kg/ha] | P uptake (canola) [kg/ha] | S uptake (canola) [kg/ha] | Zn uptake (canola) [g/ha] | pod no. (canola plants [1]) [NO./PLANT] | pod wt. (canola plants [1]) [G/PLANT] | seed wt. (canola plants [1]) [G/PLANT] | stalk dry wt. (canola plants [1]) [G/PLANT] | seed yield (canola plants [2]) [g] | B uptake (canola plants [2]) [µg] | Ca uptake (canola plants [2]) [mg] | Cu uptake (canola plants [2]) [µg] | K uptake (canola plants [2]) [mg] | Mg uptake (canola plants [2]) [mg] | further results
[S] [ES, elemental sulfur] | 4.50 | 2.17 | 57.17 | 7.60 | 3.51 | 28.97 | 32.91 | 7.54 | 4.13 | 40.05 | 58 | 3.17 | 1.13 | 3.84 | 2.92 | 0.09 | 12.10 | 0.03 | 28.42 | 11.37 | N uptake (canola plants [2]): 116.30 mg; P uptake (canola plants [2]): 28.71 mg; S uptake (canola plants [2]): 18.66 mg; Zn uptake (canola plants [2]): 2.08 µg; Mn uptake (canola plants [3]): 1.14 µg
sulfate sulfur [SO4] | 5.02 | 2.61 | 68.20 | 9.09 | 4.14 | 37.22 | 39.74 | 8.71 | 5.10 | 51.32 | 78 | 4.20 | 1.71 | 4.56 | 3.11 | 0.13 | 11.71 | 0.03 | 27.52 | 12.12 | N uptake (canola plants [2]): 116.30 mg; P uptake (canola plants [2]): 28.24 mg; S uptake (canola plants [2]): 15.76 mg; Zn uptake (canola plants [2]): 1.72 µg; Mn uptake (canola plants [3]): 1.22 µg
